Active and inactive are the calls of the source.
Experiments:
Protein skinhead-1 = biological target: T1, Protein skinhead-1 (Caenorhabditis elegans, UniProt P34707); assay type: functional
T1 sequence (P34707 whole entry): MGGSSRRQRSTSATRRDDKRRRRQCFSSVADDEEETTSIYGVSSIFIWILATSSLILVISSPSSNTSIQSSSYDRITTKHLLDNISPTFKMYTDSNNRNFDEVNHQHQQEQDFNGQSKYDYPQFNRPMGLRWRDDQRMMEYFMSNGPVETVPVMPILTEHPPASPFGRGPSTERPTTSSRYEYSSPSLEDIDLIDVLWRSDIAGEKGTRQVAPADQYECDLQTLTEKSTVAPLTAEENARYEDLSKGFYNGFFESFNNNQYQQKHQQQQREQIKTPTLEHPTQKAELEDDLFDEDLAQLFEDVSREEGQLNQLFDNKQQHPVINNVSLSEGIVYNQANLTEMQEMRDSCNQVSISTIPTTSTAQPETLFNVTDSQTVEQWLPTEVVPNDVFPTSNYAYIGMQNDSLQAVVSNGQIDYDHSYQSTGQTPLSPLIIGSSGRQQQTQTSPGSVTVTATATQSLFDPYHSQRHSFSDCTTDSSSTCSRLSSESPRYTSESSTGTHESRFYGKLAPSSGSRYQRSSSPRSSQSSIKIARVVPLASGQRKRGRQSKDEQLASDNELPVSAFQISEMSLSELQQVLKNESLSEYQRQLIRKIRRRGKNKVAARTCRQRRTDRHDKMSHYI

[1] = biological target: T2, Replicative DNA helicase DnaB (Mycobacterium tuberculosis, UniProt P9WMR3); test: DnaB intein splicing inhibitors, dose response, biochemical, cell-free fluorescence (AID 449749); assay type: functional
T2 sequence (P9WMR3 whole entry): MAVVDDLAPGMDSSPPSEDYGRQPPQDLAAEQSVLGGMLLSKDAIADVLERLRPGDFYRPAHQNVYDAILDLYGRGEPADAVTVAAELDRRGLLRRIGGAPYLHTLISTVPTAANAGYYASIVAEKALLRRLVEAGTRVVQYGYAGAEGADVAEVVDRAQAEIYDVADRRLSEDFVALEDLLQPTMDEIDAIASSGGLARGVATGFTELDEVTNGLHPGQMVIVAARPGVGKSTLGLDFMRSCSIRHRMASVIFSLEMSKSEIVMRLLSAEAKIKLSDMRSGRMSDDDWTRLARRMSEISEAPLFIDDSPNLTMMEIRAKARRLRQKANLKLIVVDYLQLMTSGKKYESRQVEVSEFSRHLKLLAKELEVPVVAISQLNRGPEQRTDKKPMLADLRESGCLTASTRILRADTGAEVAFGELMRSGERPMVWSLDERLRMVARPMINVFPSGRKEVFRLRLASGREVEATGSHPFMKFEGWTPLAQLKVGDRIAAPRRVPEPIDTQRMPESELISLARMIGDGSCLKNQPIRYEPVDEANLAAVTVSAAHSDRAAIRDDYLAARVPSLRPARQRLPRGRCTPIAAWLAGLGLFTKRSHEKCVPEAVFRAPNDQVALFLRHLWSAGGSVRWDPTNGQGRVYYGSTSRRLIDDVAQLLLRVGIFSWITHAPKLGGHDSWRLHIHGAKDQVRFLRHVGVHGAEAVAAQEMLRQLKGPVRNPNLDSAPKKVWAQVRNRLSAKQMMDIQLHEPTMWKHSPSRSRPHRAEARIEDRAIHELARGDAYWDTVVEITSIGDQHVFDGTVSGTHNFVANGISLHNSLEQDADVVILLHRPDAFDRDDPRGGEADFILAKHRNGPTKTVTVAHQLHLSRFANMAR

Protein RecA = biological target: T3, Protein RecA (Mycobacterium tuberculosis, UniProt P9WHJ3); test: Fluorescence Cell-Free Homogeneous Dose Retest to Identify Inhibitors of RecA-Intein Splicing Activity. [Related pubchem assays (depositor defined):AID2097, AID2223, AID489010, AID492950]; assay type: functional
T3 sequence (P9WHJ3 whole entry): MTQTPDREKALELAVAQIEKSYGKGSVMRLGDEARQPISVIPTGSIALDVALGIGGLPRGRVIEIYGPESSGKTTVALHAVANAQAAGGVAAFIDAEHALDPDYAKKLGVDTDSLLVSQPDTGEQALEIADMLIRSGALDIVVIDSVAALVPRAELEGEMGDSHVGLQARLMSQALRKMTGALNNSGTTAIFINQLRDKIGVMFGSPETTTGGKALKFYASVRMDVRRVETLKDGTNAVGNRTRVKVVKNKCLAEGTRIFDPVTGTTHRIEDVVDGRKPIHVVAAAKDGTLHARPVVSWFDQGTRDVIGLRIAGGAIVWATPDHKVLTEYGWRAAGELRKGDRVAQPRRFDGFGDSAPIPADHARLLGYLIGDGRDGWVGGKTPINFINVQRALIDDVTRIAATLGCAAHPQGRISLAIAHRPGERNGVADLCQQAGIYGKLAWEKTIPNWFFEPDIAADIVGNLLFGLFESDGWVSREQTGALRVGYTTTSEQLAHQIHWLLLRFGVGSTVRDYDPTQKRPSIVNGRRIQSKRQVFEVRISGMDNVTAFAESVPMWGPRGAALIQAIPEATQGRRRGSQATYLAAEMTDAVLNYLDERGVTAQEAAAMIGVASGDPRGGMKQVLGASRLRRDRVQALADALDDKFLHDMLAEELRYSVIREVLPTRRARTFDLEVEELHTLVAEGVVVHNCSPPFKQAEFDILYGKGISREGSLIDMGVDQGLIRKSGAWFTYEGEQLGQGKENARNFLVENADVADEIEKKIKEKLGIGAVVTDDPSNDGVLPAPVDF

[2] = biological target: T4, Heat shock factor protein 1 (Mus musculus, UniProt P38532); test: HSF1 potentiators in luciferase reporter cells, confirmation, cell-based, NIH3T3, luminescence, dose retest (AID 435004); assay type: functional;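 note: stress induced by proteasome inhibitor MG132 added 30 min after compound; luciferase reporter driven by HSF1 response element in NIH3T3 cells; actives raise luminescence as potentiators of the MG132 stress response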
T4 sequence (P38532 whole entry): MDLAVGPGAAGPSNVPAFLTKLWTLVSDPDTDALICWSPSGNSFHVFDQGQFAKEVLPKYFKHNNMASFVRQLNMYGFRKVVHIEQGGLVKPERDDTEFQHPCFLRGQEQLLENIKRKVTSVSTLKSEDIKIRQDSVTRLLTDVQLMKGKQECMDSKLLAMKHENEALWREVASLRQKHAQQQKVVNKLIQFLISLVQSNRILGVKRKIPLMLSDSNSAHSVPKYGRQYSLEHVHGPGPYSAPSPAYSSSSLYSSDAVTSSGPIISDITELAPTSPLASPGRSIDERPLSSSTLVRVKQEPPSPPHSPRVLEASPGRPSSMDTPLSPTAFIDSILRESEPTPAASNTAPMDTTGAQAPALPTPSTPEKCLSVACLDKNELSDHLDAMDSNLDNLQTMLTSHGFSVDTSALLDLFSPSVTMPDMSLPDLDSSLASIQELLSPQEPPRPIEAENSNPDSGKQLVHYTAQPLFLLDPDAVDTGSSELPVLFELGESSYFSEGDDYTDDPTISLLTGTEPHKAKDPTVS

[3] = Shn3 3'UTR reporter inhibitors, dose response, cell-based, Clone20 osteoblasts, firefly luciferase, cherry-picked (AID 624132); assay type: functional;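 note: firefly luciferase luminescence from reporter carrying the Shn3 3'UTR in osteoblasts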
[4] = control 3'UTR Renilla luciferase suppression, dose response, counter-screen for Shn3 inhibitor project, cell-based, Clone20-Shn3RL, cherry-picked (AID 624133); assay type: functional
[5] = NIH-3T3 fibroblast cytotoxicity, dose response, cytotoxicity control, cell-based, fluorescence, Alamar Blue, secondary assay (AID 2327); assay type: functional;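 note: NIH-3T3 mouse fibroblasts cultured with fluconazole at 8 µg/mL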
[6] = C. albicans growth with fluconazole, confirmation, fluorescence, retest (AID 2467); assay type: functional, cell-based
[7] = cytotoxicity toward NIH3T3 fibroblasts, dose response, counter-screen, cell-based, ATP luminescence, mouse fibroblasts (AID 2010); assay type: functional;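 note: cells exposed to compound for about 90 hours before reading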
[8] = inhibitors of intracellular T. cruzi replication, confirmation, NIH3T3 host cells, beta-gal luminescence (AID 2044); assay type: functional, cell-based;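 note: intracellular parasites grown in NIH/3T3 mouse fibroblasts as host cells; luminescent beta-galactosidase reporter signal from transgenic T. cruzi replicating inside host cells; inhibitors lower the luminescence signal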
[9] = HEp-2 cell cytotoxicity, dose response, cytotoxicity control for RSV inhibitor project, HTS (AID 2410); assay type: functional; settings: human respiratory syncytial virus
[10] = inhibitors of HIV Env-driven cell fusion, dose response, cherry-pick (AID 652057); assay type: functional, cell-based
Cytochrome P450 2C9 = Cytochrome P450 2C9 (Homo sapiens, UniProt P11712)
Sequence of Cytochrome P450 2C9 (P11712 whole entry): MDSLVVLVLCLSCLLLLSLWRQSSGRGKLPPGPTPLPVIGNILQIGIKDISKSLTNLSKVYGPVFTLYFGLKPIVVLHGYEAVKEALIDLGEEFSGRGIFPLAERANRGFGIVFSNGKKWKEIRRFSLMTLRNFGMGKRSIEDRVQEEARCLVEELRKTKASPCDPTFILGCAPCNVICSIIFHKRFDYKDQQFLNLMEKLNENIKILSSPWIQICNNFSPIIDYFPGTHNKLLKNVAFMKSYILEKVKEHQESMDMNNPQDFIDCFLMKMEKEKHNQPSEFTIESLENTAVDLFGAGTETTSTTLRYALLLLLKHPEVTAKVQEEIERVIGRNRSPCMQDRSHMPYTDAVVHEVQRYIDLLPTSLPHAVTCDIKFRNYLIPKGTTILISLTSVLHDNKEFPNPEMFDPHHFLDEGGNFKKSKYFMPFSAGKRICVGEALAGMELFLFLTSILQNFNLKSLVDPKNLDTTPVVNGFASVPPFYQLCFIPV

Cytochrome P450 3A4 = Cytochrome P450 3A4 (Homo sapiens, UniProt P08684);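 note: CYP3A4 tested as one member of a cytochrome P450 panel screen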
Sequence of Cytochrome P450 3A4 (P08684 whole entry): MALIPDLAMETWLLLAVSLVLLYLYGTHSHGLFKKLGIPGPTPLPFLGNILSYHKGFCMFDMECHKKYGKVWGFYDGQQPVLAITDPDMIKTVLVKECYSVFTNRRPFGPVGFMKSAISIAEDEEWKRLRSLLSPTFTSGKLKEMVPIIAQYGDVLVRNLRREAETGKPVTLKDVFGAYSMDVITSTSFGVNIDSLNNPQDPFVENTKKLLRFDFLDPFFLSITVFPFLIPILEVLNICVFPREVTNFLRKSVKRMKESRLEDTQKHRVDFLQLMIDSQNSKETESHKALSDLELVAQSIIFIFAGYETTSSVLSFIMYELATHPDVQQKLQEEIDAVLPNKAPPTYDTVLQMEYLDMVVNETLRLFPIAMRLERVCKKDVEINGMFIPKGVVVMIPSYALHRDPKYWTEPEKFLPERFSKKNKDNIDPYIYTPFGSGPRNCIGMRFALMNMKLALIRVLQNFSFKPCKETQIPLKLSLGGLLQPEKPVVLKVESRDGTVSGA

H4 = test: Luminescence Cell-Based Dose Response HTS to Identify Activators of 5'UTR Stem-Loop Driven Prion Protein mRNA Translation in H4 Neuroglioblastoma Cells. [Related pubchem assays: 1829 (Project Summary), 1814 (Primary HTS)]; assay type: functional; settings: Homo sapiens
[11] = Luminescence Cell-Based Dose Response HTS to Identify Activators of Luciferase Translation or Activity in H4 […] Cells. [Related pubchem assays: 1829 (Project Summary), 1814 (Primary HTS)]; assay type: functional
[12] = Luminescence Cell-Based Dose Retest to Confirm Inhibitors of Cancer Stem Cells. [Related pubchem assays (depositor defined):AID2717, AID2721]; assay type: functional; settings: Homo sapiens

With CCCc1cc2nnc(SCC(=O)N(C)C3CCCCC3)n2c(N)n1 the IC50 (Protein skinhead-1) was > 100 µM (inactive).

With COc1ccc(CC(=O)O/N=C(\N)Cc2cccc3ccccc23)cc1OC the AC50 [1] was 73.3 µM (active) and the EC50 (Protein RecA) was 18.2 µM (active).

In the case of Cc1cc(C)n(CC(O)COc2ccc(Cl)cc2Cl)n1 (stereo unspecified), the EC50 [2] is reported as 116 µM (active).

With O=C1CC2(CCN(C(=O)c3ccccc3F)CC2)Oc2ccccc21 the AC50 [3] was 65.8 µM (active) and the AC50 [4] was 30.8 µM (active).

With CCOCCCNC(=O)c1ccc(N(C)S(=O)(=O)c2ccc(OC)cc2)cc1 the EC50 [5] was > 160 µM (inactive) and the EC50 [6] was > 38 µM (not active).

For Clc1ccc(-c2cc(CSc3ccccc3)on2)cc1, the IC50 (Protein skinhead-1) was 20 µM (active).

In the case of CCC(=O)Nc1ccc2nn(-c3ccc(F)cc3)nc2c1, the EC50 [7] is reported as > 60 µM (not active), the EC50 [8] is reported as 4.4 µM (active) and the EC50 [2] is reported as > 260 µM (inactive).

For CC12CCC(=O)N1C(C(=O)Nc1cccc3ccccc13)CS2 (stereo unspecified), the EC50 [2] was > 260 µM (inactive).

With Cc1ccc(CNC(=O)c2cn(C3CCCCC3)c(=O)c3c2c2ccccc2n3C)o1 the CC50 [9] was 23.3 µM (active) and the EC50 [2] was 51.7 µM (active).

With N#CC1=C(N)N(c2ccccc2)C(c2ccccc2)C1(C#N)C#N (stereo unspecified) the AC50 [1] was 7.51 µM (active) and the EC50 (Protein RecA) was 11.6 µM (active).

For CCCNC(=O)c1ccc2c(O)c(O)c(-c3ccc(OC)cc3)nc2c1, the EC50 [5] was > 150 µM (inactive) and the EC50 [6] was > 38 µM (not active).

With COC(=O)c1ccc(C(=O)OC)c(-n2c(=O)c3ccccc3c3ccccc3c2=O)c1 the AC50 [1] was 8.61 µM (active) and the EC50 (Protein RecA) was 18.5 µM (active).

For Cn1c(CN2CCN(C(=O)c3ccc(F)cc3)CC2)nc2cc([N+](=O)[O-])ccc21, the EC50 [2] was > 260 µM (inactive).

In the case of Cn1c(Sc2ccc(C(F)(F)F)cc2[N+](=O)[O-])nnc1-c1ccccc1, the EC50 [2] is reported as > 260 µM (inactive).

For COc1ccc(S(=O)(=O)N(C)C[C@H]2Oc3cc(C4=CCCC4)ccc3S(=O)(=O)N([C@@H](C)CO)C[C@H]2C)cc1, the AC50 [10] was 16.4 µM (active).

With CCCOc1ccc(C(=O)C2=C(O)C(=O)N(c3cc(C)on3)C2c2ccc(C(=O)OC)cc2)cc1 (stereo unspecified) the IC50 (Protein skinhead-1) was > 100 µM (inactive).

With CC(=O)Nc1ccc2c(c1)Cc1c-2cc(Br)c(N)c1Br the IC50 (Protein skinhead-1) was > 100 µM (inactive).

For Cc1ccc(C(=O)/C=C/c2ccc(-c3ccc(C)cc3)o2)cc1, the AC50 [3] was 2.79 µM (active) and the AC50 [4] was 14.3 µM (active).

In the case of COc1ccc(/C=N/OCC(=O)Nc2nc3ccccc3s2)cc1, the EC50 [5] is reported as > 150 µM (inactive) and the EC50 [6] is reported as 4.97 µM (active).

For N#Cc1ccccc1OCC(O)CS(=O)(=O)c1ccccc1 (stereo unspecified), the IC50 (Protein skinhead-1) was > 100 µM (inactive).

For Cc1nc(-c2cccc(NC(=O)c3ccco3)c2)cs1, the IC50 (Protein skinhead-1) was > 100 µM (inactive).

In the case of COc1ccc(C(C(=O)NC2CCCC2)N(C(=O)c2snc(-c3ccc(F)cc3)c2N)c2ccc(F)cc2)cc1 (stereo unspecified), the AC50 (Cytochrome P450 2C9) is reported as 1.78 µM (inconclusive), the IC50 (Protein skinhead-1) is reported as > 100 µM (inactive) and the AC50 (Cytochrome P450 3A4) is reported as 12.6 µM (inconclusive).

For CCC(C)Nc1nc(Cl)nc(N(C#N)CN2C(=O)c3ccccc3S2(=O)=O)n1 (stereo unspecified), the AC50 [1] was 14 µM (active) and the EC50 (Protein RecA) was 18.2 µM (active).

For O=C1NC(=O)[C@]2(Cc3ccccc3N3CCN(c4ccccc4)CC32)C(=O)N1Cc1ccccc1 (stereo partly specified), the EC50 [2] was > 260 µM (inactive).

With CCCn1c(C)cc(C(=O)CSc2nc3ccccc3c(=O)n2Cc2ccco2)c1C the EC50 (H4) was 5 µM (active) and the EC50 [11] was 0.112 µM (active).

With CCn1c(C)nc2cc(C(=O)N/N=C/c3cccc(OC)c3O)ccc21 the EC50 [5] was 16.2 µM (active), the AC50 [12] was 8.16 µM (active) and the EC50 [6] was > 38 µM (not active).

With CCCCNc1nc(Nc2ccc(C)c(Cl)c2)c2cnn(C)c2n1 the CC50 [9] was 6.78 µM (active), the AC50 [12] was 9.2 µM (active) and the EC50 [2] was > 260 µM (inactive).

In the case of CC(C)(C)c1ccc(C2=CSC3=NCCN23)cc1, the IC50 (Protein skinhead-1) is reported as > 100 µM (inactive).

For Cc1cc(-c2ccccc2)nc2cc(C(=O)N(Cc3ccccc3)Cc3ccccc3)nn12, the AC50 [1] was > 120 µM (inactive), the AC50 [12] was 4.86 µM (active) and the EC50 (Protein RecA) was > 380 µM (inactive).

With Cc1cc2cc(CNC(=O)c3cccc([N+](=O)[O-])c3)ccc2n1C the IC50 (Protein skinhead-1) was > 100 µM (inactive).
